Reference: patent publication US20250282757A1, “ARYL ETHER-SUBSTITUTED HETEROCYCLIC COMPOUNDS AS GLP1R AGONISTS” (MINDRANK AI LTD., priority 2021, published 2025)

Columns and labels:
[1] = Pharmacokinetic study in monkeys; format: in vivo, cynomolgus monkeys; conditions: for AUC(0-inf): read-out: AUC0-inf; for half-life: read-out: T½ (converted)
Method: The pharmacokinetic properties of compounds of the present invention were evaluated in monkey pharmacokinetic experiments with 3 male Non-naive cynomolgus monkeys per group. Compounds were dissolved in 10% solutol/90% saline. For single intravenous administration, the dose was 1 mg/kg, and the administration volume was 1 mL/kg. For single intragastric administration, the dose was 5 mg/kg, and the administration volume was 1 mL/kg. Animals were fasted overnight with free water before the experiment and resumed feeding 4 hours after administration. Blood was collected at 0.0830, 0.25, 0.5, 1, 2, 4, 6, 8 and 24 hours after dosing. About 0.4 mL of whole blood was collected from the animal's forearm vein and placed in an EDTA-K2 anticoagulant tube. The samples were centrifuged at 4° C. and 4200 rpm for 5 min, and the plasma was transferred to a centrifuge tube and stored at −80° C. until analysis. For plasma sample analysis, the test compounds and internal standards (Labetalol & tolbutamide & Verapamil & dexamethasone & glyburide & Celecoxib) were extracted from monkey plasma by protein precipitation method with acetonitrile, and the extracts were analyzed by LC/MS/MS. Measured plasma concentration-time data in individual animals were analyzed using the non-compartmental model of Phoenix WinNonlin 7.0 (Pharsight, USA) software to obtain the following pharmacokinetic parameters: maximum (peak) plasma drug concentration Cmax; time to peak Tmax; Half-life T1/2 and area under the plasma concentration-time curve extrapolated to infinity AUC0-inf.

GLP-1R = GLP-1R (Homo sapiens, UniProt P43220); test: Agonist activity on GLP-1R, HTRF cAMP detection in stably transfected GLP-1R/HEK293 cells; format: cell-based
Chain of GLP-1R (P43220 24-463): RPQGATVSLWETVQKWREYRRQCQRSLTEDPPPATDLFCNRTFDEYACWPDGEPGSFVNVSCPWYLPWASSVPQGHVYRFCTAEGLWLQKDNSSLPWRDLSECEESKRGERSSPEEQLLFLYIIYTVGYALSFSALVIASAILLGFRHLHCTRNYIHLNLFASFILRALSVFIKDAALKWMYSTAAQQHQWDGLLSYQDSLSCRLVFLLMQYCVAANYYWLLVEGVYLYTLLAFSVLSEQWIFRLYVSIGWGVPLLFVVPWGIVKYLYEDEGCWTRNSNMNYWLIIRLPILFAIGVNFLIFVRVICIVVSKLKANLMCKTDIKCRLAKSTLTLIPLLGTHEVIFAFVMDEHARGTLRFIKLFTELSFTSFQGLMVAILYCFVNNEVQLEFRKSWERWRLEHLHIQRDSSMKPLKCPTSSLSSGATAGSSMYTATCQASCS

cynomolgus monkeys = test: Intravenous glucose tolerance (IVGTT) experiment in cynomolgus monkey; format: in vivo
Method: The compounds were dissolved in 10% Solutol HS15+90% Saline by vortex ultrasound. Vehicle was 10% Solutol HS15+90% Saline.
Male cynomolgus monkeys, 10-15 years old, weighing 6-13 kg. Healthy animals were selected for efficacy studies according to alanine aminotransferase (ALT), aspartate aminotransferase (AST), triglyceride (TG), total cholesterol (TC), high density lipoprotein (HDL), low density lipoprotein (LDL), glycosylated hemoglobin (HbA1c), body weight (BW).
After 1 week of acclimation, the IVGTT baseline before administration was measured, and the animals were grouped according to the insulin and blood glucose results of the IVGTT. The detailed information of treatment was as follows:
IVGTT was started after 2 hours post of compound dosing. Blood were collected-at −15 min, 0 min (before sugar administration), and 2, 5, 7, 10, 20, and 30 min after sugar administration. And the blood glucose level were measured.
Data was analyzed by Graphpad Prism 6 and the statistical method was one-way ANOVA Dunnett's test. Compared with the vehicle group, p<0.05 was considered significant difference. * means p<0.05, ** means p<0.01, *** means p<0.001.

[2] = Pharmacokinetic study in mice; format: in vivo, CD-1 mice; conditions: for AUC(0-inf): read-out: AUC0-inf; for half-life: read-out: T½ (converted)
Method: The pharmacokinetic properties of some compounds of the present invention were evaluated in mice pharmacokinetic experiments. SPF male CD-1 mice from Beijing Vital River Laboratory Animal Technology Co., Ltd were used with 6 mice in each group. Compounds were dissolved in 10% solutol/90% saline. A single intravenous administration was given at a dose of 1 mg/kg in a volume of 1 mL/kg. A single intragastric administration was given at a dose of 5 mg/kg in a volume of 1 mL/kg. Animals were fasted overnight prior to the administration and resumed feeding 4 hours after administration, ad libitum to water. Blood was collected at 0.0830, 0.25, 0.5, 1, 2, 4, 6, 8 and 24 hours after dosing. About […] of whole blood was collected from the saphenous vein of animals and placed in an EDTA-K2 anticoagulation tube. The samples were centrifuged at 4° C. and 4200 rpm for 5 min, and the plasma was transferred into a centrifuge tube and stored at −80° C. until analysis. For plasma sample analysis, the test compounds and internal standards (Labetalol & tolbutamide & Verapamil & dexamethasone & glyburide & Celecoxib) were extracted from mice plasma by protein precipitation method with acetonitrile, and the extracts were analyzed by LC/MS/MS. The measured plasma concentration-time data of individual animals were analyzed with the non-compartmental model of Phoenix WinNonlin 7.0 (Pharsight, USA) software, and the pharmacokinetic parameters of mice were obtained as follows: maximum (peak) plasma drug concentration Cmax; Peak time Tmax; half-life T1/2 and area under the plasma concentration-time curve extrapolated to infinity AUC0-inf.

h-GLP1-R C57BL6J mice = test: Intraperitoneal glucose tolerance (IPGTT) test in h-GLP1-R C57BL6J mice; format: in vivo
Method: The compounds to be tested were dissolved in 10% Solutol HS15+90% Saline, and vortexed by ultrasonic to dissolve.
Male SPF h-GLP1-R C57BL6J mice, 6-9 weeks old, weighing 20 g-25 g.
Upon arrival, animals were acclimated for 7 days before experiments. The body weight and random blood sugar of the animals were measured one day before administration. Animals were divided into 4 groups based on body weight and random blood glucose.
Mice were overnight fasted before IPGTT. Baseline fasting blood glucose and insulin level were measured before vehicle or compound dosing. 30 min post of compound dosing, glucose were injected intraperitoneally (2 g/kg, 10 ml/kg). Blood glucose levels were measured at −30, 0, 15, 30, 60, 120 min. Plasma 15 ul were collected at 0 and 15 min for insulin analysis by Rat/Mouse Insulin Elisa Kit.
AUC0-120min was the area under the blood glucose-time curve. Insulin change was the difference between 15 min and 0 min plasma insulin concentration. Statistical analysis of data was performed with Graphpad Prism 6, and the statistical method was one-way ANOVA Dunnett test. Compared with the vehicle group, p<0.05 was considered a significant difference. * means p<0.05, ** means p<0.01, *** means p<0.001.

[3] = cynomolgus monkey, plasma, male cynomolgus monkeys, 1 mg/kg iv
[4] = cynomolgus monkey, plasma, male cynomolgus monkeys, 5 mg/kg po
[5] = mouse, plasma, male CD-1 mice, 1 mg/kg iv
[6] = mouse, plasma, male CD-1 mice, 5 mg/kg po

- clearance [1, 3]: 12 mL/min/kg
- AUC(0-inf) [1, 3]: 1420 ng·h/mL
- half-life [1, 3]: 2.2 h
- Vd ([1]; cynomolgus monkey, plasma, male cynomolgus monkeys, 1 mg/kg iv, read-out: Vdss): 0.4 L/kg
- AUC(0-inf) [1, 4]: 614 ng·h/mL
- Cmax ([1]; cynomolgus monkey, plasma, male cynomolgus monkeys, 5 mg/kg po, read-out: Cmax): 214 ng/mL
- half-life [1, 4]: 5.4 h
- F ([1]; male cynomolgus monkeys, 5 mg/kg po): 8.6%
- clearance rate compared with PF-06882961 ([1]; monkeys): lower clearance rates
- exposure compared with PF-06882961 ([1]; monkeys): higher exposure
- half-life compared with PF-06882961 ([1]; monkeys): greater
- EC50 (GLP-1R; 30 min incubation): 0.149 nM
- Max activity (GLP-1R; relative to top concentration of reference GLP-1(7-37)): 111.5%
- F ([2]; male CD-1 mice, 5 mg/kg po): 32.7%
- clearance rate compared with PF-06882961 ([2]; mice): lower clearance rates
- exposure compared with PF-06882961 ([2]; mice): higher exposure
- clearance [2, 5]: 26.2 mL/min/kg
- AUC(0-inf) [2, 5]: 637 ng·h/mL
- half-life [2, 5]: 1.5 h
- Vd ([2]; mouse, plasma, male CD-1 mice, 1 mg/kg iv, read-out: Vdss): 1.3 L/kg
- AUC(0-inf) [2, 6]: 1040 ng·h/mL
- Cmax ([2]; mouse, plasma, male CD-1 mice, 5 mg/kg po, read-out: Cmax): 483 ng/mL
- half-life [2, 6]: 1.7 h
SMILES: N#Cc1ccc(OCc2cccc(OC3CCN(Cc4nc5ccc(C(=O)O)cc5n4C[C@@H]4CCO4)CC3)n2)c(F)c1 [Compound 55, (S)-2-((4-((6-((4-cyano-2-fluorophenoxy)methyl)pyridin-2-yl)oxy)piperidin-1-yl)methyl)-1-(oxetan-2-ylmethyl)-1H-benzo[d]imidazole-6-carboxylic acid]
- effect on blood glucose compared with PF-06882961 (cynomolgus monkeys; 100 mg/kg po, IVGTT): equivalent
- blood glucose level in IVGTT (cynomolgus monkeys; single oral dose of 100 mg/kg, IVGTT 2 hours after dosing): significantly lower the blood glucose level
- Insulin change (15 min minus 0 min plasma insulin) (h-GLP1-R C57BL6J mice; 0.3 mpk po): significantly increase insulin secretion
- AUC0-120min (area under the blood glucose-time curve) (h-GLP1-R C57BL6J mice; 0.3 mpk po, compared with the vehicle group): significant difference compared with the vehicle group
- blood glucose during IPGTT (h-GLP1-R C57BL6J mice; single oral dose 0.3 mg/kg, glucose 2 g/kg ip 30 min after dosing): significantly reduced the blood glucose
